Measured values taken from patent US20230107216A1, “PANTETHEINE DERIVATIVES AND USES THEREOF” (Comet Therapeutics, Inc., priority 2018, published 2023).

Key:
[1] = system: tyrosine hydroxylase positive mesencephalic neurons injured by MPP+; assay: Neuroprotective effect on damage induced by MPP+ on culture of mesencephalic neurons; format: cell-based; conditions: Rattus norvegicus, Neuron, MPP+ 50 μM, 48h, read-out: % reversion of TH positive neurons (MPTP-mediated degradation of dopaminergic neurons)
Description: (§1) A female Wistar rat (Janvier; France) of 15 days gestation was terminated by cervical dislocation, the fetuses were removed from the uterus and their brains were harvested and placed in ice-cold medium (Leibovitz's L15 medium, Gibco). Only ventral mesencephalic flexure was used for the cell preparations. The midbrain was dissociated by trypsinization. The reaction was stopped, and the suspension was triturated and centrifuged. The pellet of dissociated cells was resuspended in chemically defined medium consisted of Neurobasal (Gibco), containing B27 supplement (Gibco) and L-glutamine (Gibco), 10 ng/ml (BDNF; Pepro Tech, France) and 1 ng/ml (GDNF; Pepro Tech).
(§2) Viable primary rat embryo mesencephalic cells were counted and seeded on 96-multi-wells plate precoated with poly-L-lysine. Cells were maintained in a humidified incubator at 37° C. in 5% CO2-95% air atmosphere and medium changed on day 2. On day 6, the culture medium was removed and replaced by new media without neurotrophic factors containing the compounds of the present disclosure (50-10 μM) or vehicle (0.1% DMSO). After 1h exposure, injury of mesencephalon neuronal cultures was induced by MPP^+ (50 μM) for further 48h. A mixture of the growth factors GDNF (1 ng/ml) and BDNF (10 ng/ml) were used as reference compound. On day 8, the tyrosine hydroxylase positive neurons were evaluated. Cultures were fixed 30 min at 4° C. with paraformaldehyde in PBS (4%, Thermo Scientific, 28908). After, cells were permeabilized with 0.1% Triton X100 for 30 min, saturated with PBS containing 3% of BSA (bovine serum albumin) and incubated 2h with anti-tyrosine hydroxylase antibody (Sigma, 1:10000; clone TH-2) at 1/10000 in PBS containing 0.5% of BSA. Cells were washed three times with PBS containing 0.5% of BSA and incubated 1h with goat anti mouse antibody coupled with AF488 (Invitrogen A11001) diluted at 1/1000 in PBS containing 0.5% of BSA. Finally, nuclei were stained with DAPI at 1/1000 in PBS containing 0.5% of BSA. After rinsing with PBS, the plate was visualized and examined with Cell Insight HCS (Thermo Scientific) to determine the number of tyrosine hydroxylase positive cells per well.
(§3) The results for each well were expressed as a percentage by setting the density of tyrosine hydroxylase positive cells under control conditions to 100%. Then the result for each condition was reported as mean±SEM from 4 independent cultures.
(§4) A global analysis of the data was performed using a one-way analysis of variance (ANOVA), followed by Fisher's Protected Least Significant Difference when applicable. The level of significance was set to p<0.05.

[2] = system: primary fibroblasts (healthy controls and PA, MMA, BCKDK, PDH, VLCAD, LS, PC, GA, VLCFA, KSS, FXN, HD); assay: Measurement of ROS (H2DCFDA) in primary fibroblasts; format: cell-based, human; conditions: Homo sapiens, Fibroblast; BCKD GM00612; procedure Example 812; Assay Condition A; read-out: Decreased ROS by at least 10%
In short: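 Patient and healthy-control primary fibroblasts switched to supplemented DMEM 24 h before assay, then treated with compound (10 μM) plus H2DCFDA (22 μM) for 2 h (PA, MMA lines) or 24 h (other lines). Kinetic fluorescence at 492/527 nm over 60 min; only live cells analysed.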

[3] = system: tyrosine hydroxylase positive mesencephalic neurons injured by 6-OHDA; assay: Neuroprotective effect on damage induced by 6-OHDA on culture of mesencephalic neurons; format: cell-based; conditions: Rattus norvegicus, Neuron; 50 uM; 6-OHDA 15 μM, 48h; read-out: % reversion of TH positive neurons (6-OHDA-mediated degradation of dopaminergic neurons)
Method: The protective effect of compounds of the present disclosure was determined on 6-OHDA-mediated injury on mesencephalon neuronal cultures.
as §1, with “Neurobasal (Gibco, 21103049),” for “Neurobasal (Gibco),”, “supplement (Gibco, A3582801)” for “supplement (Gibco)”, “L-glutamine (Gibco, 25030081),” for “L-glutamine (Gibco),”, “Tech, France, 450-02)” for “Tech, France)”, “Pepro Tech, 450-51).” for “Pepro Tech).”
as §2, with “6-OHDA (15” for “MPP^+ (50”, “Sigma).” for “Thermo Scientific, 28908).”, “DAPI (Thermo fisher, D1306)” for “DAPI”
as §3, §4

With `CC(C)(CO)[C@@H](O)C(=O)NCCC(=O)NCCSC(=O)[C@@H](N)CCC(=O)O` [Compound 383] the inhibition at 10 µM [1] was no less than 60%, the inhibition at 10 µM [2] was no less than 10% and the inhibition at 50 µM [3] was no less than 30%.
